Some test systems named below: UO-31; OVCAR-5; SN12C; HOP-62; LOX IMVI; OVCAR-8; COLO 205; RPMI-8226; CAKI-1; MCF7; SK-OV-3; OVCAR-4; UACC-62; HT-29; SF-295; SR; IGROV-1; HL-60; KM12; M14.
Experiment in all cases: NCI tumour cell line growth inhibition, 48 h

Structures are written as SMILES.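 Where inhibition never reached the appropriate level, the endpoint shown equals the highest concentration tested. Otherwise, values were interpolated linearly from a five-concentration, 48-hour dose response in 96-well plates. Here, GI50 denotes the concentration required for 50% inhibition of growth.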 The source made the active and inactive calls. Cut-off read from the data, not from the text of the source: active = GI50 up to about 1.1 µM and inactive = higher.

For `CN1C(=O)[C@@H]2[C@@H]3c4ccccc4N(S(=O)(=O)C(F)(F)F)[C@@H]3c3[nH]c4ccccc4c3[C@@H]2C1=O`, the GI50 in the assay on UO-31 was 14.1 µM (inactive); with OVCAR-5, > 100 µM (inactive); with SN12C it was > 100 µM (inactive); in the assay on HOP-62, > 100 µM (inactive); in the assay on LOX IMVI, > 100 µM (inactive); in the assay on OVCAR-8, 83 µM (inactive). In addition, the GI50 in the assay with COLO 205 is 7.91 µM (inactive); with RPMI-8226, 8.39 µM (inactive); in the assay with CAKI-1 it was > 100 µM (inactive); in the assay on MCF7 it was 11.6 µM (inactive); with SK-OV-3, > 100 µM (inactive); in the assay with OVCAR-4, 82.4 µM (inactive). The GI50 was > 100 µM (inactive) with UACC-62; 7.67 µM (inactive) in the assay with HT-29; 50.7 µM (inactive) in the assay with SF-295; 4.9 µM (inactive) with SR; 0.175 µM (active) in the assay with IGROV-1.
Turning to `OCCN1c2ccccc2Sc2ccccc21`, the GI50 with HL-60, in the assay on OVCAR-5, with SN12C, in the assay with HOP-62, with KM12 and with LOX IMVI was > 10 µM (inactive) throughout. Also, the GI50 in the assay with OVCAR-8, with COLO 205, in the assay on RPMI-8226, in the assay on CAKI-1, in the assay on MCF7 and with SK-OV-3 was > 10 µM (inactive) throughout. Also, the GI50 with OVCAR-4, with HT-29, with SF-295, with M14 and in the assay on SR was > 10 µM (inactive) in each case.
In the case of `C=CCCC1(O)C(O)C(CO)O[C@H](O[C@@]2(CO)OC(CO)C(O)C2O)C1O` (stereo not given in full), the GI50 in the assay on HL-60, with OVCAR-5, in the assay with SN12C, in the assay on HOP-62, in the assay with KM12 and in the assay with LOX IMVI was > 100 µM (inactive) each time. The GI50 in the assay on OVCAR-8, in the assay on COLO 205, in the assay on RPMI-8226, in the assay on CAKI-1, in the assay with MCF7 and in the assay with OVCAR-4 was > 100 µM (inactive) each time. The GI50 with HT-29, in the assay with SF-295, in the assay on M14, in the assay with SR and with IGROV-1 was > 100 µM (inactive) in each case.
On to `Nc1nc(Cl)cc(NCC2(CCO)CCC2)n1`, for which the GI50 in the assay on HL-60, with UO-31, in the assay with OVCAR-5, in the assay with SN12C, in the assay on HOP-62 and in the assay on KM12 was > 100 µM (inactive) in each case. For the same compound, the GI50 in the assay on LOX IMVI, with OVCAR-8, in the assay on RPMI-8226, in the assay on CAKI-1, in the assay with MCF7 and in the assay with SK-OV-3 was > 100 µM (inactive) in each case. In addition, the GI50 in the assay with OVCAR-4 was > 100 µM (inactive); in the assay with UACC-62, > 10 µM (inactive); in the assay with HT-29, > 100 µM (inactive); with SF-295, > 10 µM (inactive); in the assay with SR, > 100 µM (inactive); with IGROV-1 it was > 100 µM (inactive).
Consider `CC(NNC(=O)c1cc[n+]([BH2-]C#N)cc1)c1ccc(Cl)cc1Cl` (stereo not given), for which the GI50 is 23.8 µM (inactive) with HL-60; 26.2 µM (inactive) with UO-31; 42.2 µM (inactive) with OVCAR-5; > 100 µM (inactive) in the assay with SN12C; 34.8 µM (inactive) with KM12; 29.2 µM (inactive) in the assay with LOX IMVI. Also, the GI50 with OVCAR-8 was 31.5 µM (inactive); in the assay on COLO 205, 60.7 µM (inactive); with RPMI-8226 it was 17.6 µM (inactive); with CAKI-1, 68.2 µM (inactive); with MCF7, 36 µM (inactive); in the assay on OVCAR-4 it was 30.7 µM (inactive). In addition, the GI50 is 55.8 µM (inactive) in the assay on UACC-62; 32.5 µM (inactive) in the assay with SF-295; 42.4 µM (inactive) in the assay with M14; 30.9 µM (inactive) with SR; 51.8 µM (inactive) in the assay with IGROV-1.
In the case of `O=C(C1C(c2ccccc2)N1C(c1ccccc1)c1ccccc1)C1C(c2ccccc2)N1C(c1ccccc1)c1ccccc1` (stereo not given), the GI50 with HL-60 is 2.88 µM (inactive); in the assay with UO-31, 21 µM (inactive); with OVCAR-5 it was 32.1 µM (inactive); in the assay on SN12C it was 21.8 µM (inactive); with HOP-62, > 100 µM (inactive); with KM12, 26.9 µM (inactive). For the same compound, the GI50 in the assay on OVCAR-8 is 29.6 µM (inactive); in the assay with COLO 205, > 10 µM (inactive); in the assay with RPMI-8226, 3.59 µM (inactive); in the assay on MCF7, 5.31 µM (inactive); in the assay on SK-OV-3 it was > 100 µM (inactive); with OVCAR-4, 38.1 µM (inactive). Moreover, the GI50 is 13.6 µM (inactive) with HT-29; 75.7 µM (inactive) in the assay on SF-295; 37.2 µM (inactive) in the assay with M14; 3.51 µM (inactive) with SR; > 10 µM (inactive) in the assay on IGROV-1.
As to `O=C1C(N2CCNCC2)=C(Cl)C(=O)c2ncccc21`, the GI50 in the assay with OVCAR-5 is > 10 µM (inactive); with SN12C, > 10 µM (inactive); in the assay on HOP-62, > 10 µM (inactive); in the assay on KM12 it was > 10 µM (inactive); in the assay on OVCAR-8, 6.19 µM (inactive); in the assay with COLO 205 it was > 10 µM (inactive). The GI50 in the assay on RPMI-8226 was 3.37 µM (inactive); with CAKI-1, > 10 µM (inactive); in the assay with MCF7 it was 3.02 µM (inactive); in the assay on SK-OV-3, > 10 µM (inactive); in the assay with OVCAR-4, > 10 µM (inactive); in the assay on UACC-62, > 10 µM (inactive). Further, the GI50 in the assay on HT-29, in the assay with SF-295, in the assay on M14, in the assay on SR and with IGROV-1 was > 10 µM (inactive) throughout.
On to `C[C@]12CC[C@H](O)CC1=CC[C@@H]1[C@@H]2CC[C@]2(C)C(=O)CC[C@@H]12` [PRASTERONE], for which the GI50 with UO-31, in the assay with OVCAR-5, in the assay on SN12C, in the assay with KM12, in the assay on LOX IMVI and in the assay with OVCAR-8 was > 100 µM (inactive) in each case. For the same compound, the GI50 in the assay on COLO 205, in the assay on RPMI-8226, with CAKI-1, in the assay with MCF7, with SK-OV-3 and with OVCAR-4 was > 100 µM (inactive) in each case. Also, the GI50 with UACC-62, with HT-29, with SF-295, in the assay with M14 and in the assay with SR was > 100 µM (inactive) each time.
As for `O=c1cc(N2CCCC2)[nH]c(=O)n1-c1ccccc1`, the GI50 in the assay on HL-60, in the assay on OVCAR-5, with SN12C, with HOP-62, in the assay with KM12 and in the assay on LOX IMVI was > 100 µM (inactive) each time. The GI50 with OVCAR-8, in the assay on COLO 205, with RPMI-8226, in the assay on CAKI-1, with MCF7 and in the assay on OVCAR-4 was > 100 µM (inactive) in each case. For the same compound, the GI50 in the assay with HT-29, in the assay with SF-295, in the assay on M14, with SR and in the assay with IGROV-1 was > 100 µM (inactive) each time.
In the case of `Cc1c(S(=O)(=O)c2ccccc2)c(N)n(CCN(C)C)c1C`, the GI50 in the assay with HL-60, in the assay on UO-31, with OVCAR-5, with SN12C, with KM12 and with OVCAR-8 was > 100 µM (inactive) throughout. The GI50 in the assay on COLO 205, in the assay on RPMI-8226, in the assay on CAKI-1, with MCF7, in the assay on SK-OV-3 and in the assay with OVCAR-4 was > 100 µM (inactive) in each case. In addition, the GI50 in the assay with UACC-62, in the assay on HT-29, in the assay with SF-295, with M14, in the assay with SR and in the assay with IGROV-1 was > 100 µM (inactive) each time.
Take `CCOC(=O)CNC(=O)C(CSCc1ccc(Br)cc1)NC(=O)CCC(N)C(=O)OCC` (stereo not given): the GI50 is > 50 µM (inactive) with UO-31; > 50 µM (inactive) in the assay with OVCAR-5; > 50 µM (inactive) with SN12C; > 50 µM (inactive) in the assay on HOP-62; 40.6 µM (inactive) in the assay with KM12; > 50 µM (inactive) in the assay on OVCAR-8. The GI50 in the assay with COLO 205, in the assay with RPMI-8226, in the assay with CAKI-1, with MCF7, with SK-OV-3 and with OVCAR-4 was > 50 µM (inactive) each time. Besides, the GI50 in the assay on UACC-62, in the assay with HT-29, in the assay with SF-295, in the assay on M14, with SR and in the assay with IGROV-1 was > 50 µM (inactive) throughout.

(Values after ChEMBL document CHEMBL1201862, “PubChem BioAssay data set” (2004).)
